Measurements as given in paper PMC11962866 (RSC Advances, 2025).
≈ marks a conversion by molar mass, not a printed value. Entries after “also recorded” stand apart in the source; their conditions may differ.

Experiments:
Strain 901 = test: Antifungal activity against fluconazole-resistant strain; type: cell-based; settings: Candida albicans, 901, read-out: MIC80 Strain 901
Strain 17# = test: as above; type: cell-based; settings: Candida albicans, read-out: MIC80 Strain 17#
[1] = Metabolic stability assay of liver microsomes; type: in vitro ADME; settings: mouse
C. alb (SC5314) = test: In vitro antifungal assay; type: cell-based; settings: Candida albicans, SC5314, read-out: MIC80 C. alb (SC5314)
[2] = tested on: ERG11 and CDR1 of azole-resistant strain 904; test: RT-PCR expression of resistant genes ERG11 and CDR1; type: cell-based, Candida albicans; settings: 0.25 μg mL^−1, strain 904, RT-PCR
[3] = tested on: five fluconazole-resistant strains obtained from clinical isolation; test: Antifungal activity, span over five fluconazole-resistant strains; type: cell-based, Candida albicans
Strain CaR = test: Antifungal activity against fluconazole-resistant strain; type: cell-based; settings: Candida albicans, read-out: MIC80 Strain CaR
Strain 904 [4] = test: as above; type: cell-based, Candida albicans; settings: for MIC80: Candida albicans, 904, read-out: MIC80 Strain 904; for MIC: Candida albicans, 904, read-out: MIC against C. alb
Plasma stability assay = settings: male, SD, rat
C. neo = test: In vitro antifungal assay; type: cell-based; settings: Cryptococcus neoformans, read-out: MIC80 C. neo
[5] = tested on: strain 904, fluconazole-resistant strain of C. albicans; test: Minimum fungicidal concentration; type: cell-based, Candida albicans
C. alb SC5314 [6] = test: Morphological observation of fungal cells by TEM; type: cell-based, Candida albicans; settings: 2 μg mL^−1, 24 h
[7] = tested on: azole-resistant strain 904; test: Yeast-to-hypha morphological transition; type: cell-based, Candida albicans; settings: 0.25 μg mL^−1, 5 h
C. alb SC5314 [8] = test: GC-MS analysis of sterol composition; type: cell-based, Candida albicans; settings: 0.03 μg mL^−1, 24 h
Strain 632 = test: Antifungal activity against fluconazole-resistant strain; type: cell-based; settings: Candida albicans, 632, read-out: MIC80 Strain 632
[9] = tested on: azole-resistant strain 904; test: In vivo antifungal potency, mouse infection model, kidney fungal burden; settings: mice, tail vein infection with strain 904, intraperitoneal, day 5
MRC-5 cells = test: Cytotoxicity assay on normal cells; type: cell-based, human; settings: Homo sapiens, MRC5, 72 h, read-out: IC50 on MRC-5 cell lines
Strain 904 [10] = test: Time-kill test; type: cell-based, Candida albicans; settings: A11 at 8 × MIC, 16 × MIC, 32 × MIC
[11] = tested on: azole-resistant strain 904; test: Biofilm formation; type: cell-based, Candida albicans
Strain 904 [12] = test: ROS level; type: cell-based, Candida albicans; settings: 0.25 μg mL^−1, compared to blank and fluconazole groups

Row | SMILES | MIC80 (Strain 901) [µg/mL] | MIC80 (Strain 17#) [µg/mL] | half-life [1] [h] | microsomal CLint [1] [µL/min/mg] | MIC80 (C. alb (SC5314)) [µg/mL] | Expression of ERG11 and CDR1 [2] | MIC80 (Strain CaR) [µg/mL] | MIC80 (Strain 904 [4]) [µg/mL] | MIC (Strain 904 [4]) [µg/mL] | half-life (Plasma stability assay) [h] | remaining at 3 h (Plasma stability assay) [%] | MIC80 (C. neo) [µg/mL] | Fungal cell morphology (TEM) (C. alb SC5314 [6]) | Morphological transition from yeast to hyphae [7] | Effect on ergosterol biosynthesis / sterol composition (C. alb SC5314 [8]) | MIC80 (Strain 632) [µg/mL] | Efficacy in vivo (CFU fungal burden in kidneys) [9] | IC50 (MRC-5 cells) [µM] | other results
1 | OC(Cn1cncn1)(Cn1cncn1)c1ccc(F)cc1F [Fluconazole, fluconazole, reference compound] | > 128 | > 128 | > 2 | 2 | 4 (≈ 13.1 µM) | overexpression of drug resistance gene ERG11 and CDR1 | > 128 | > 128 | > 128 | > 6 | 102 | 8 (≈ 26.1 µM) | the cell membrane was damaged | did not inhibit the morphological transition | effectively suppresses ergosterol biosynthesis | > 128 | ineffective | > 100 | Antifungal activity against the tested resistant strains (in words) [3]: completely inactive; MFC ([5]; Candida albicans, read-out: MFC against C. alb): > 128 µg/mL
2 | O=C(Nc1ccc(F)cc1F)c1ccc(COC(Cn2ccnc2)c2ccc(Cl)cc2Cl)cc1 (stereo not shown) [A11, 4-((1-(2,4-Dichlorophenyl)-2-(1H-imidazol-1-yl)ethoxy)methyl)-N-(2,4-difluorophenyl)benzamide] | 1 (≈ 1.99 µM) | 1 (≈ 1.99 µM) | 0.258 | 89.4 | 0.03 (≈ 0.0597 µM) | reduced to basic levels | 2 (≈ 3.98 µM) | 0.125 (≈ 0.249 µM) | 0.125 (≈ 0.249 µM) | > 6 | 73.9 | 0.06 (≈ 0.119 µM) | disrupt the structural integrity of the cells | completely hindered the morphogenetic transition | effectively suppresses ergosterol biosynthesis | 2 (≈ 3.98 µM) | potent efficacy; also recorded: significantly reduced fungal burden | > 100 | Time-kill fungicidal effect (Strain 904 [10]): potent fungicidal effects at three concentrations; Effect on mature biofilms [11]: dose-dependent destruction of mature fungal biofilms; Intracellular ROS levels (Strain 904 [12]): significant increase in intracellular ROS levels; MIC80 ([3]; Candida albicans, read-out: MIC80 span over the tested resistant strains): 0.125 to 2 µg/mL (≈ 0.249 to 3.98 µM); MFC/MIC ([5]; strain 904): 16
